Source: patent US20240327353A1
Read-outs that look alike come from different tables or passages of the source. Each block holds one compound with its values, some of them ahead of it.

Assays:
5-HT2AR = target: T1, 5-HT2AR (Homo sapiens, UniProt P28223); assay: Radioligand binding (competitive displacement and saturation), cell membranes; settings: displacement of [^3H]ketanserin; mean of n independent experiments, ± SD where n ≥ 5
T1 construct: host or cells: HEK293, transient
Experimental: (§1) Transfections were performed for 48 hours.

H1R = target: T2, H1R (Homo sapiens, UniProt P35367); assay: as above
T2 construct: host or cells: CHO, transient
T2 sequence (P35367 whole entry): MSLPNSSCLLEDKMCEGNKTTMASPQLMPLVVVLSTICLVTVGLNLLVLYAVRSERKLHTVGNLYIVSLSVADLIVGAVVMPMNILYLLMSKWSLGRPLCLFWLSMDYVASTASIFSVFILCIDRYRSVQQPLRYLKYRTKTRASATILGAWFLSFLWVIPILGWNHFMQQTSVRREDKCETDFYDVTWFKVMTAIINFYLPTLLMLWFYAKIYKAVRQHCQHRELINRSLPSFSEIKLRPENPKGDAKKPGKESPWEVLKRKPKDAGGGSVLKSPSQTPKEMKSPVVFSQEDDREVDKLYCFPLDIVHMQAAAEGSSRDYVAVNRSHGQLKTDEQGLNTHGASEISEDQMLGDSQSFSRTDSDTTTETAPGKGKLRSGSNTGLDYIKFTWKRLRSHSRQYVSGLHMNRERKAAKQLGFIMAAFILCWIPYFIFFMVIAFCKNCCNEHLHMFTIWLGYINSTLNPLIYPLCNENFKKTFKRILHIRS
Experimental: as §1

S242A^5.46 5-HT2AR = target: T3, S242A^5.46 5-HT2AR (Homo sapiens, UniProt P28223, S242A); assay: IP1 accumulation assay at point-mutated 5-HT2AR; assay type: cell-based; settings: in the presence of 1 μM 5-HT; ± SD
T3 construct: expressed in transfected cells; host or cells: clonal cells
T3 sequence (P28223 whole entry S242A): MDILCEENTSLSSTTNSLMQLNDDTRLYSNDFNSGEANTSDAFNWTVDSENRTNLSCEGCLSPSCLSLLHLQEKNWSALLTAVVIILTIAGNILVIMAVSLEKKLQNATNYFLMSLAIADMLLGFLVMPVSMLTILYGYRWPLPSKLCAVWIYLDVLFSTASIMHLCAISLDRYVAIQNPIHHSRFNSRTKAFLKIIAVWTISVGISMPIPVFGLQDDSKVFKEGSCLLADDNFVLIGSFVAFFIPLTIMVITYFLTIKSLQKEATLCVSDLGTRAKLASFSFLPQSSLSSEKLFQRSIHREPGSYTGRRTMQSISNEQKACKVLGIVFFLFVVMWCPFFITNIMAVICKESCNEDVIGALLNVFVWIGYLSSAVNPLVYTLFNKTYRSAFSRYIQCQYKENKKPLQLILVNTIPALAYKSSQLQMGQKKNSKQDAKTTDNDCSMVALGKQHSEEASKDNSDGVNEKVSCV
Experimental: as §1

V235M^5.39 5-HT2AR = target: T4, V235M^5.39 5-HT2AR (Homo sapiens, UniProt P28223, V235M); assay: IP1 accumulation assay at point-mutated 5-HT2AR; assay type: cell-based; settings: in the presence of 1 μM 5-HT; ± SD
T4 construct: expressed in transfected cells; host or cells: clonal cells
T4 sequence (P28223 whole entry V235M): as the sequence (P28223 whole entry S242A) above, with V235M, A242S counted along it
Experimental: as §1

F213K^4.63 5-HT2AR = target: T5, F213K^4.63 5-HT2AR (Homo sapiens, UniProt P28223, F213K); assay: IP1 accumulation assay at point-mutated 5-HT2AR; assay type: cell-based; settings: in the presence of 1 μM 5-HT; ± SD
T5 construct: expressed in transfected cells; host or cells: clonal cells
T5 sequence (P28223 whole entry F213K): as the sequence (P28223 whole entry S242A) above, with F213K, A242S counted along it
Experimental: as §1

I210V^4.60 5-HT2AR = target: T6, I210V^4.60 5-HT2AR (Homo sapiens, UniProt P28223, I210V); assay: IP1 accumulation assay at point-mutated 5-HT2AR; assay type: cell-based; settings: in the presence of 1 μM 5-HT; ± SD
T6 construct: expressed in transfected cells; host or cells: clonal cells
T6 sequence (P28223 whole entry I210V): as the sequence (P28223 whole entry S242A) above, with I210V, A242S counted along it
Experimental: as §1

G238S^5.42 5-HT2AR = target: T7, G238S^5.42 5-HT2AR (Homo sapiens, UniProt P28223, G238S); assay: IP1 accumulation assay at point-mutated 5-HT2AR; assay type: cell-based; settings: in the presence of 1 μM 5-HT; ± SD
T7 construct: expressed in transfected cells; host or cells: clonal cells
T7 sequence (P28223 whole entry G238S): as the sequence (P28223 whole entry S242A) above, with G238S, A242S counted along it
Experimental: as §1

5-HT1A = target: T8, 5-HT1A (Homo sapiens, UniProt P08908); assay: Radioligand binding, cell membranes
T8 construct: host or cells: HEK293T, transient
T8 sequence (P08908 1-422): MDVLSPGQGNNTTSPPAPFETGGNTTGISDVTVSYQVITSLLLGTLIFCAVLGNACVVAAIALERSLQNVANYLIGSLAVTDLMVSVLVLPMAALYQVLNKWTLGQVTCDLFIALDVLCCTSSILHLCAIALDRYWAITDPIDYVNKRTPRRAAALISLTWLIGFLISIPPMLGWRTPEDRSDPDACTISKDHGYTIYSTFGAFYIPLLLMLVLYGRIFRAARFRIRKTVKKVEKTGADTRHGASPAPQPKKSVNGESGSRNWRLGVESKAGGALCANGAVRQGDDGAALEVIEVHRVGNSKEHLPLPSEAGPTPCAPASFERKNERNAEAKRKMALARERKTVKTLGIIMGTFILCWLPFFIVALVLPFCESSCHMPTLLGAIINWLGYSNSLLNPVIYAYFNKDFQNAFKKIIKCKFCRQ
Experimental: as §1

D3 = D3 (Homo sapiens, UniProt P35462); assay: Radioligand binding, cell membranes
D3, sequence (P35462 whole entry): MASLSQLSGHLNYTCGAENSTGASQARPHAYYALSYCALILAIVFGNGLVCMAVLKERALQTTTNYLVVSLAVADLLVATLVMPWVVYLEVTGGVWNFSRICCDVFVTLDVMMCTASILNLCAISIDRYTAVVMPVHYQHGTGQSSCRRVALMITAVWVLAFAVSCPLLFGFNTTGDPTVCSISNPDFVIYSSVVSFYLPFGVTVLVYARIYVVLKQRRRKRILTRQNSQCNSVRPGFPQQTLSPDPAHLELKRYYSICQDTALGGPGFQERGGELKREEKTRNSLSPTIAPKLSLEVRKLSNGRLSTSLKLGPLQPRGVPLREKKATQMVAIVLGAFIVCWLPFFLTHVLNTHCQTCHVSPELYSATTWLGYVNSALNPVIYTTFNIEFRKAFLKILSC
Experimental: as §1

5-HT7 = 5-HT7 (Homo sapiens, UniProt P34969); assay: Radioligand binding, cell membranes
5-HT7, sequence (P34969 1-445 isoform P34969-2): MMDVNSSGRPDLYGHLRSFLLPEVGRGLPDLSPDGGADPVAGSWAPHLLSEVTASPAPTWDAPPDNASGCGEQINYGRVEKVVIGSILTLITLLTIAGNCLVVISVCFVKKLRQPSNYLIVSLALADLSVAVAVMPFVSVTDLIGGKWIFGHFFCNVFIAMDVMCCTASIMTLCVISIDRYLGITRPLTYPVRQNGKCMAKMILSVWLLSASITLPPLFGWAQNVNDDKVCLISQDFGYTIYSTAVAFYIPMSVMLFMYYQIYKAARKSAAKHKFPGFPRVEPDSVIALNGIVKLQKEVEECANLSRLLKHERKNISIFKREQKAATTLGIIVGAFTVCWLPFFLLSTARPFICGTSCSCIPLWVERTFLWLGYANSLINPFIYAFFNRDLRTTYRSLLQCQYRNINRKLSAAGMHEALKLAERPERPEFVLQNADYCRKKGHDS
Experimental: as §1

D2L = D2L (Homo sapiens, UniProt P14416); assay: Radioligand binding, cell membranes
D2L, sequence (P14416 whole entry): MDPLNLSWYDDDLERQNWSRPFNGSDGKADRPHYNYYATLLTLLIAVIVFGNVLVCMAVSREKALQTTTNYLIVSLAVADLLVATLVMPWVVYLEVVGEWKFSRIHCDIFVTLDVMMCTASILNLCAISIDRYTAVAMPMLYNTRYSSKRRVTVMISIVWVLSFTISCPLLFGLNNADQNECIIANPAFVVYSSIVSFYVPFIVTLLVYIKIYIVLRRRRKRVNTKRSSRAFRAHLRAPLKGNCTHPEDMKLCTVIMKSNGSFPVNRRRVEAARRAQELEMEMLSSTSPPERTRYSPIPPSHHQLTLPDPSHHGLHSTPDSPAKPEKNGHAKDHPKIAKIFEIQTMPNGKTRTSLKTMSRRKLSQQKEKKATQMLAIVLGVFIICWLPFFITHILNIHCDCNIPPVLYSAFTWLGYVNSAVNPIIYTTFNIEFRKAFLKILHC
Experimental: as §1

human wild-type 5-HT2C = human wild-type 5-HT2C (Homo sapiens, UniProt P28335); assay: IP-One HTRF IP1 accumulation assay
human wild-type 5-HT2C, sequence (P28335 33-458): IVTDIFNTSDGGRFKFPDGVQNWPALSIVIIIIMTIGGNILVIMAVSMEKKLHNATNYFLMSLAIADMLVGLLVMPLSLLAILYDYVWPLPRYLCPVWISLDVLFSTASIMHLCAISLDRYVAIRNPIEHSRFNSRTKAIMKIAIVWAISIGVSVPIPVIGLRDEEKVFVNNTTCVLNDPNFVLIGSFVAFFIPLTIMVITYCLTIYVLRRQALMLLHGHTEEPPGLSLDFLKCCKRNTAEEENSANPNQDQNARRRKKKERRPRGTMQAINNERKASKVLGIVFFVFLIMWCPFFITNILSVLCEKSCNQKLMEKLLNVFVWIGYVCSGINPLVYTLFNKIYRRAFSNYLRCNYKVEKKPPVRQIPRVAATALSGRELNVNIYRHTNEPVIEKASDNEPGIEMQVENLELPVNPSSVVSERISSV

α1B-adrenergic receptor [1] = target: T9, α1B-adrenergic receptor (Homo sapiens, UniProt P35368)
T9 sequence (P35368 1-520): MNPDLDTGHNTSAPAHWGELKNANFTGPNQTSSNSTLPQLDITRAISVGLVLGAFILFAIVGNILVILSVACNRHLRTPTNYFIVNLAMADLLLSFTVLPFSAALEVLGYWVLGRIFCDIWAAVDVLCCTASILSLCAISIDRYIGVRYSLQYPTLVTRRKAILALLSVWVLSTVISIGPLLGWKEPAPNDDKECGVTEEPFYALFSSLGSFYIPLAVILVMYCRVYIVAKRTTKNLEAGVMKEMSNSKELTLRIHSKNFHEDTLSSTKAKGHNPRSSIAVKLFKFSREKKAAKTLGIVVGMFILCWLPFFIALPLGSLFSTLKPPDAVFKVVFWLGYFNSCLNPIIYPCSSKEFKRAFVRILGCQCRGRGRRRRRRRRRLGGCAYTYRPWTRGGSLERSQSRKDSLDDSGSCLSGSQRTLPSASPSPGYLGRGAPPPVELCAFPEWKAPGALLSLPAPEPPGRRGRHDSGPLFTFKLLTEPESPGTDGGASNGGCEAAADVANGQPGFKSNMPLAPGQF

human wild-type 5-HT2A = human wild-type 5-HT2A (Homo sapiens, UniProt P28223); assay: IP-One HTRF IP1 accumulation assay; settings: antagonism of IP1 accumulation in the presence of 1 μM 5-HT; ± SD
human wild-type 5-HT2A, sequence (P28223 whole entry): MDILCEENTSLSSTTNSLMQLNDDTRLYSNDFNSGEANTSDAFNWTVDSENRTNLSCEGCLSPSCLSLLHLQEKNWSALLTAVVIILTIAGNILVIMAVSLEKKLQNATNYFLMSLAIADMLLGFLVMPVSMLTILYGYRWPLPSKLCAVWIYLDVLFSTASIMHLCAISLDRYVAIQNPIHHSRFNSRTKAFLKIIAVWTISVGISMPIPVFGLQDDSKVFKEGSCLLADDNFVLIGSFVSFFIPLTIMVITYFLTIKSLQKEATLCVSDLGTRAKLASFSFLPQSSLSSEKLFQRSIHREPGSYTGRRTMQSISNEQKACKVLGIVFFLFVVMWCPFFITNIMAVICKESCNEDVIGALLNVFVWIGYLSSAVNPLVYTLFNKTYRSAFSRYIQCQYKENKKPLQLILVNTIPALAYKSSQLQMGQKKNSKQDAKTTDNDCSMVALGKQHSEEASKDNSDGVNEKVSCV

α1A-adrenergic receptor [2] = target: T10, α1A-adrenergic receptor (Homo sapiens, UniProt P35348)
T10 sequence (P35348 1-466): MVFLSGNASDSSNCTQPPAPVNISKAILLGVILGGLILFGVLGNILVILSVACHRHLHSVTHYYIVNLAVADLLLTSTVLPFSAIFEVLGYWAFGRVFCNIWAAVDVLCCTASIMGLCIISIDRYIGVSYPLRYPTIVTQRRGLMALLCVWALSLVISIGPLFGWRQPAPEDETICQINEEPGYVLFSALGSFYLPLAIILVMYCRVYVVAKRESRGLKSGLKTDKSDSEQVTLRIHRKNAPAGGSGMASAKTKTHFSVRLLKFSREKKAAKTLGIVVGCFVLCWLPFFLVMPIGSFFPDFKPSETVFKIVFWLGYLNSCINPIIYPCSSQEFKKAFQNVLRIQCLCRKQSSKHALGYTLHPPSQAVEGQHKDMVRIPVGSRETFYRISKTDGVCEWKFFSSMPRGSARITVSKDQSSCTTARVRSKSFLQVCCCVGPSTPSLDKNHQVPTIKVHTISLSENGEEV

C322K^6.34 5-HT2AR = target: T11, C322K^6.34 5-HT2AR (Homo sapiens, UniProt P28223, C322K); assay: IP1 accumulation assay, inverse agonism at constitutively activated receptor; assay type: cell-based
T11 construct: expressed in transfected cells; host or cells: clonal cells
T11 sequence (P28223 whole entry C322K): as the sequence (P28223 whole entry S242A) above, with A242S, C322K counted along it
Experimental: as §1

male C57BL/6J mice [3] = assay: Locomotor activity, compound alone (open field); assay type: in vivo; settings: 3 mg*kg^−1 s.c. (FIG. 3C)
human wild-type H1R = human wild-type H1R (Homo sapiens, UniProt P35367); assay: IP-One HTRF IP1 accumulation assay; settings: competitive antagonism of histamine-stimulated IP1 accumulation (10 μM histamine)
human wild-type H1R, sequence (P35367 whole entry): as the sequence (P35367 whole entry) above

male C57BL/6J mice [4] = assay: (±)-DOI-elicited head twitch response; settings: for head twitch response elicited by (±)-DOI: 1 mg*kg^−1 (±)-DOI s.c., pretreatment s.c., every dose tested (PIMA, (2S,4R)-2k 0.3 or 3 mg kg^−1, (2R,4R)-3h 3.0 or 5.6 mg kg^−1)
α1B-adrenergic receptor [5] = target: T9, α1B-adrenergic receptor; assay: biochemical
α1A-adrenergic receptor [6] = target: T10, α1A-adrenergic receptor; assay: biochemical
5-HT2BR = 5-HT2BR (Homo sapiens, UniProt P41595)
5-HT2BR, sequence (P41595 whole entry): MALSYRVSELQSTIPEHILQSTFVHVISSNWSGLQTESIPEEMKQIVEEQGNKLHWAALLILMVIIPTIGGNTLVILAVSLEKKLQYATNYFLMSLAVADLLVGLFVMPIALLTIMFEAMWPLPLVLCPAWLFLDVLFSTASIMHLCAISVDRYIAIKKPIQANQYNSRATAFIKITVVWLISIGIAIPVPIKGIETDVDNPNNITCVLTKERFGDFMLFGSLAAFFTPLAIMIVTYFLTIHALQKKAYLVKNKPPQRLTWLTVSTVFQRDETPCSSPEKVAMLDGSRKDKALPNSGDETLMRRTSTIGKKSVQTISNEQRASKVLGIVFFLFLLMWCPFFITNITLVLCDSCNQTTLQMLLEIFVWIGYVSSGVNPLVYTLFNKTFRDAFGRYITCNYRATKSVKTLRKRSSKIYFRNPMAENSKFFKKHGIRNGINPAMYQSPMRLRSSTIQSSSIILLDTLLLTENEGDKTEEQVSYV

human wild-type 5-HT2B = human wild-type 5-HT2B (Homo sapiens, UniProt P41595); assay: IP-One HTRF IP1 accumulation assay
human wild-type 5-HT2B, sequence (P41595 whole entry): as above

male C57BL/6J mice [7] = assay: Locomotor activity after (±)-DOI (open field); settings: pretreatment 0.3 mg*kg^−1 s.c., compared to saline pretreatment (FIG. 3B)
W158I^4.56 H1R [8] = target: T12, W158I^4.56 H1R (Homo sapiens, UniProt P35367, W158I)
T12 sequence (P35367 whole entry W158I): as the sequence (P35367 whole entry) above, with W158I counted along it

D231F^5.35 5-HT2AR = D231F^5.35 5-HT2AR (Homo sapiens, UniProt P28223, D231F); assay: Exploratory saturation radioligand binding at point-mutated 5-HT2AR; settings: membranes of transfected HEK293 cells (FIGS. 14A-14D)
D231F^5.35 5-HT2AR, sequence (P28223 whole entry D231F): as the sequence (P28223 whole entry S242A) above, with D231F, A242S counted along it

W158I^4.56 H1R [9] = target: T12, W158I^4.56 H1R; remark: listed apart in the source
[10] = [^3H]5-CT, mean of n independent experiments

T1 sequence (P28223 whole entry): as the sequence (P28223 whole entry) above

Compound: CN(C)[C@@H]1Cc2ccccc2[C@H](c2cccc(-c3cccc(F)c3)c2)C1 (single isomer, unassigned) [(2R,4R)-3h, Cis-4-(3′-fluoro-[1,1′-biphenyl]-3-yl)-N,N-dimethyl-1,2,3,4-tetrahydronaphthalen-2-amine]
pKi 5-HT2AR (5-HT2AR): 9.46 ± 0.34 | pKi H1R (H1R): 7.31 ^(2) 7.39-7.23 8.96^(3) 9.11-8.88 6.20^(2) 6.23-6.18 6.30 ± 0.10^(5) 6.42-6.14 | pKb S242A^5.46 5-HT2AR (S242A^5.46 5-HT2AR): 6.85 ± 0.36 | pKb V235M^5.39 5-HT2AR (V235M^5.39 5-HT2AR): 7.02 ± 0.26 | pKb F213K^4.63 5-HT2AR (F213K^4.63 5-HT2AR): 7.04 ± 0.17 | pKb I210V^4.60 5-HT2AR (I210V^4.60 5-HT2AR): 7.18 ± 0.22 | pKb G238S^5.42 5-HT2AR (G238S^5.42 5-HT2AR): 4.59 ± 0.48 | pKi 5-HT1A (5-HT1A; [10]): <5.0^(3) | pKi D3 (D3): 6.21 ^(3) | pKi 5-HT7 (5-HT7; [10]): 6.29^(4) | pKi D2L (D2L; [^3H]spiperone, mean of n independent experiments): <5.0^(3) | inverse agonist efficacy (Imax) at 5-HT2CRs (human wild-type 5-HT2C): exhibits inverse agonism | Ki (α1B-adrenergic receptor [1]): 794 nM | pKb Wild type 5-HT2AR (human wild-type 5-HT2A): 6.97 ± 0.37 | Ki (α1A-adrenergic receptor [2]): 741 nM | inverse agonist efficacy at C322K^6.34 5-HT2ARs (reduction of basal IP1 accumulation) (C322K^6.34 5-HT2AR): ~60% | pIC50 inverse agonism at C322K^6.34 5-HT2ARs (C322K^6.34 5-HT2AR): 6.81±0.39 | locomotor activity, compound administered alone (male C57BL/6J mice [3]): preserving general locomotor ability | pKb at H1Rs (human wild-type H1R): 5.82±0.22 | head twitch response elicited by (±)-DOI (male C57BL/6J mice [4]): significantly attenuated the head twitch response

Compound: [3H]C([3H])(N1CCC(C(=O)c2ccc(F)cc2)CC1)C([3H])([3H])n1c(=O)[nH]c2ccccc2c1=O [[^3H]Ketanserin]
specific binding to W158I^4.56 H1Rs (W158I^4.56 H1R [8]): cannot be detected | specific binding to D231F^5.35 5-HT2ARs (D231F^5.35 5-HT2AR): no specific binding is detected

Second part, led by results:

Ki (5-HT1A; read-out: pKi 5-HT1A (converted)): > 10000 nM | Ki (D3; read-out: pKi D3 (converted)): 120 nM | Ki (5-HT7; read-out: pKi 5-HT7 (converted)): 41.7 nM | Ki (D2L; read-out: pKi D2L (converted)): 69.2 nM | Ki (α1B-adrenergic receptor [5]): 3240 nM | Ki (α1A-adrenergic receptor [6]): 10.2 nM | inverse agonist efficacy at C322K^6.34 5-HT2ARs (reduction of basal IP1 accumulation) (C322K^6.34 5-HT2AR; below basal): ~50%
Compound: CN(C)[C@@H]1Cc2ccccc2[C@@H](c2cccc(Br)c2)C1 (single isomer, unassigned) [(2S,4R)-2a, Trans-4-(3-bromophenyl)-N, N-dimethyl-1,2,3,4-tetrahydronaphthalen-2-amine]

pKi H1R (H1R; displacement of [^3H]mepyramine, mean of n independent experiments, ± SD where n ≥ 5): 5.50^(2) | Ki (5-HT2BR): 437 nM | Kb (human wild-type 5-HT2B): 1380 nM | locomotor activity, compound administered alone (male C57BL/6J mice [3]): suppresses locomotor activity | pKb at H1Rs (human wild-type H1R): little, if any, antagonism | locomotor activity (distance traveled) of mice given 1 mg*kg^−1 DOI (male C57BL/6J mice [7]): locomotor suppression
Compound: CC(C)COc1ccc(CNC(=O)N(Cc2ccc(F)cc2)C2CCN(C)CC2)cc1 [PIMA, pimavanserin, reference compound]
attenuation of head twitch response compared with the same dose of (2S,4R)-2k (male C57BL/6J mice [4]; 0.3 mg*kg^−1 s.c.): significantly more effective | head twitch response elicited by (±)-DOI (male C57BL/6J mice [4]): significantly attenuated the head twitch response

IP1 accumulation at W158I^4.56 H1Rs in response to histamine (W158I^4.56 H1R [9]): unable to stimulate IP1 accumulation
Compound: NCCc1c[nH]cn1 [histamine]
